Reference: patent US20100015071A1, “Compositions for Improving Skin Conditions Comprising Alpha-Bisabolol as an Active Ingredient” (Biospectrum Inc., priority 2007, published 2010)

Key:
[1] = system: B16 mouse melanoma cells; assay: Inhibition of melanin production in B16 mouse melanoma cells; type: cell-based; conditions: 72 h, B16 F10 cells, 3 days, read-out: Inhibitory rate of melanin production (%)
Protocol: This cell pellets were dried at 60° C., 100 μl of 1M NaOH containing 10% DMSO was added to thereto, and intracellular melanin was obtained in incubator at 60° C.

[2] = system: brown guinea pigs; assay: Skin whitening effect in UV-pigmented brown guinea pigs; type: in vivo, guinea pig; conditions: for Whitening effects (ΔL): once or twice a day for 50 days, control ΔL 0.35
Protocol: A skin whitening effect of α-bisabolol was measured using brown guinea pigs (Charles River Laboratories, Inc.) pigmentation of which is known to increase upon exposure to ultraviolet light like human.
To induce pigmentation in the brown guinea pig by ultraviolet (UV), aluminum foil with square windows of 3×3 cm^2 was adhered to hair-removed abdominal skin of brown guinea pig, and then UV light was irradiated thereon with a SE lamp (wavelength 290-320 nm, Toshiba) (total irradiation energy=1350 mJ/cm^2). After UV irradiation, the aluminum foil was removed and samples (α-bisabolol or arbutin) were applied as the following method. Increased pigmentation was observed on 2-3 days after UV irradiation and reached a maximum after about 2 weeks. Following the period of time showing the maximum pigmentation, samples were applied.
The application of samples was performed once or twice a day for 50 days. The samples were dissolved or diluted in a solvent (Propylene glycol:ethanol:water 5:3:2) and applied by a swab. The control with only the solvent was applied to another site. The occurrence of cumulative irritation was also examined.
The degree of pigmentation of skin was determined using a chromameter (CR2002, MINOLTA, JP) to estimate the effects of applied samples. La*b* calorimetric system was used to classify color and L* value was used as standard in Example. The L* value was corrected using white board standard and was measured more than five times at one site. Pigmentation was evenly distributed. Skin color differences (ΔL*) between application starting point and application end point were obtained and used to evaluate effects of samples.
ΔL*=L* value on […] after application−L* value on application starting day Equation 1
ΔL* values were obtained for control and sample application to evaluate skin whitening effects.

[3] = Anti-oxidation: removal of superoxide anion (SOD Assay Kit-WST); type: biochemical
Protocol: Superoxide dismutase (SOD) has been known as an anti-oxidation-catalyzing enzyme which converts superoxide anion into H2O2 and O2. This experiment evaluates anti-oxidation activity of samples by observing removal of superoxide anion generated by xanthine oxidase. The experiment was performed using the kit (SOD Assay Kit-WST) purchased from Dojindo (JP) in accordance with manufacture's protocol.

[4] = system: COX (cyclooxygenase); assay: COX inhibitory ability in LPS-treated THP-1 cells; type: cell-based, human; conditions: LPS alone = 100
Protocol: To determine whether α-bisabolol had anti-inflammatory effects, the experiment of COX (cyclooxygenase) inhibitory ability was carried out using human monocytic cell, THP-1 cell (Korean Cell Line Bank) according to conventional method. The COX activity was measured in accordance with Methods in Enzymology 43:9 (1994) published by F. J. Van de Ouderaaa and Muytenhek. THP-1 cell line was cultivated and aliquoted into 24-well plate. The incubation volume per well was adjusted to 500 μl, 2 μl of the sample compound, which dissolved in lipopolysaccahride (1 μg/ml, Sigma) and solvents described in the following Table respectively, was added and cultivated for 24-48 hr under the same condition. After 24-48 hr, calcium ionophore (Sigma) and [1-14C] arachidonic acid 1 μl (in EtOH, 0.1 μCi/ml, Sigma) were added to each well, and cultivated for 10 min under the same condition. Following the cultivation, citric acid was added to each well for adjusting to pH 3.5, shaked, each 500 μl of cultivation solution taken from the plate was aliquoted into micro centrifuge tube, 700 μl of ethylacetate was added to thereto, and the solution was shaking extracted for 10 min. 500 μl of ethylacetate layer was concentrated using speed vacuum dryer for 20 min, 20 μl of the residual was dissolved in ethylacetate, and the resultant was employed with authentic standard in TLC plate. The radioactive band was identified by authentic eicosanoid standards, the radioactivity of the identified band was measured using BAS 2000 bio-imaging analyzer (Fuji, JP) (Table 7).

[5] = system: Interleukin-2 promoter; assay: Interleukin-2 luciferase reporter activity in PHA-activated Jurkat cells; type: cell-based, human; conditions: 24 hr, PHA alone = 100
Protocol: Interleukin-2 promoter was reported to play an important role in the generation of cytokine related to inflammatory. The activity of interleukin-2 luciferase was measured using the following method: Human T lymphocytes cell line, 1×10^6 of Jurkat cell (Korean Cell Line Bank) were aliquoted into each well of 6-wells, IL-2 luciferase reporter plasmid DNA (Stratagene) was transfected using superfect transfection reagent (In vitrogen). 24 hr after transfection, PHA (Phytohemaglutinin, Sigma) (100 ng/ml) was treated to activate Jurkat cell and each samples was treated with varying concentration. Following 24 hr, the cell was collected and the luciferase activity was measured using luminometer (Berthold Technologies GmbH&Co.KG, Germany).

[6] = system: procollagen type I C-peptide (PICP); assay: Collagen synthesis (procollagen type I C-peptide) in human fibroblasts; type: cell-based; conditions: 24 hr
Protocol: Human fibroblasts (commercially available from pacific) were seeded into a 6-well plate (2×10^5 cells/well) and the well plate was incubated in a 5% CO2 incubator for 24 hr at 37° C. After 24 hr, the medium in each well was removed and cells were incubated with various concentrations of samples for 24 hr. Afterwards, the cell medium was collected and was used as samples. The potential of collagen synthesis was determined by measuring the amount of procollagen type I C-peptide (PICP) in cell medium using Procollagen Type I C-peptide EIA kit (MK101, Takara, Kyoto, Japan) in accordance with manufacturer's protocol.

[7] = system: collagenase; assay: Collagenase activity in human fibroblast medium (Type 1 collagenase assay kit); type: cell-based; conditions: human fibroblasts, 24 hr
Protocol: Human fibroblasts (commercially available from pacific) were seeded into a 6-well plate (2×10^5 cells/well) and the well plate was incubated in a 5% CO2 incubator for 24 hr at 37° C. After 24 hr, the medium in each well was removed and cells were incubated with various concentrations of samples for 24 hr. Afterwards, the cell medium was collected and was used as samples.
For measuring the collagenase activity, antibodies against collagenase was used. The collagenase activity was measured using a Type 1 collagenase assay kit (Amersham Biosciences, RPN2629) and the absorbance values were obtain using an ELISA reader (Bio-Tek ELx808™ Series Ultra Microplate Reader, U.K). The measured average values were represented as mean±standard deviation.

[8] = Obesity inhibition test in ICR male mice (body weight); type: in vivo, mouse; conditions: single forced administration
Protocol: An obesity inhibition test was performed by the following method using well-known laboratory animals. The process for determining obesity-inhibitory activity was as follows: Crj: 7 week-old ICR male mice (obtained from Charles River Japan Ltd) weeks were preliminarily fed for 1 week, then classified into groups each having 7 animals and subjected to the test. The animals were fed under controlled conditions at a temperature of 23±1° C., and a humidity of 55±5% under illumination for 12 hours per day. They were fed with a feed Labo MR (manufactured by Nippon Nosan) and allowed to take water ad libitum. α-Bisabolol was present in the form of liposome (prepared with 5% lecithin) to the final concentration of either 0.1% or 1%. The concentration of each sample solution was adjusted so that 0.1 ml of the solution was given per 10 g body weight of mice. The doses employed were […] and 1 g/kg. To a control group, 5% lecithin emulsion was administered. After fasting the mice, the sample was administered once by force on the next day. During the test period over 2 weeks, the body weight and general conditions were monitored.

[9] = system: B16 mouse melanoma cells; assay: Cytotoxicity at the test concentrations in B16 melanoma cells; type: cell-based; conditions: 1 ppm, 5 ppm and 10 ppm
[10] = biological target: T1, intracellular tyrosinase (Mus musculus, UniProt P11344); assay: Inhibition of intracellular tyrosinase activity in murine melanoma (B-16 F1) cells; conditions: B16-F1, read-out: Inhibitory rate of intracellular tyrosinase activity (%)
T1 sequence (P11344 19-533): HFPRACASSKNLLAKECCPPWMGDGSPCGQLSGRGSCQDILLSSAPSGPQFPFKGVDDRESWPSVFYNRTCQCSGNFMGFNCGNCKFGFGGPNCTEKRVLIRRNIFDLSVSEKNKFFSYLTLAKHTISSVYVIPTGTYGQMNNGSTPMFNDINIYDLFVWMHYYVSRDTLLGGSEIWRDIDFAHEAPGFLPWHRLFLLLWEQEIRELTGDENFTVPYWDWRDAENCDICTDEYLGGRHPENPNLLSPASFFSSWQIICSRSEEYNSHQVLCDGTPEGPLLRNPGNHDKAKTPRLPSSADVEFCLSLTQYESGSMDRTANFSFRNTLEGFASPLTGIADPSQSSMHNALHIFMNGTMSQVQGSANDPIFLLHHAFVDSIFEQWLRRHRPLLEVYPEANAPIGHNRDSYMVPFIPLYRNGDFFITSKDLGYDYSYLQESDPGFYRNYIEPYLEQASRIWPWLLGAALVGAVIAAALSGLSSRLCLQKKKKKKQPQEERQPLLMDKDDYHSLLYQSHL
Protocol: After measuring the inhibition of melanin production by α-bisabolol using B16 mouse melanoma cells (Korean Cell Line Bank), the measurement was compared with that for the inhibition of intracellular tyrosinase activities by arbutin, known as a melanin production inhibitor. Murine melanoma (B-16 F1) cells were seeded into each well of a 6-well plate (1×10^5 cells/well) in DMEM containing 10% FBS (fetal bovine serum) and the cells were cultured to about more than 80% adherence by incubating in a CO2 incubator under conditions of 37° C. and 5.0% CO2. After cultivation, the medium was removed and samples were replaced in medium diluted at suitable concentration, followed by incubating for 3 days under conditions of 37° C. and 5.0% CO2. […] The cells removing medium were washed with PBS (phosphate buffer saline) and treated with trypsin to collect cells. The number of the collected cells was calculated using hematocytometer, centrifuged at 5,000 to 10,000 rpm for 10 min and the supernatant was eliminated, thereby obtaining pellets. This cell pellets were lysated using lysis buffer, centrifuged at 12,000 rpm for 10 min and the supernatant was collected. Then, the cell solution was measured for absorbance at 492 nm using microplate reader and the activity of tyrosinase per cell constant number was estimated.

## CC(C)=CCC[C@](C)(O)C1CC=C(C)CC1 (stereo in doubt) [α-Bisabolol, (2S)-6-methyl-2-[(1R)-4-methyl-1-cyclohex-3-enyl]hept-5-en-2ol]
[1]; 1 ppm
  inhibition at 1 ppm: 24%
[1]
  inhibition at 5 ppm: 36%
[1]; 10 ppm
  inhibition at 10 ppm: 49%
[2]; 0.2 % topical
  Whitening effects (ΔL): 0.42
[2]; 1.0 % topical
  Whitening effects (ΔL): 0.67
[2]; topical on brown guinea pig skin for 50 days
  Cumulative irritation: no observation of cumulative irritation
[3]; 1 ppm
  Removal rate of superoxide anion (%): 8%
[3]; 5 ppm
  Removal rate of superoxide anion (%): 18%
[3]; 10 ppm
  Removal rate of superoxide anion (%): 34%
[4]; 1 ppm with LPS (1 μg/ml)
  COX activities (%): 95%
[4]; 5 ppm with LPS (1 μg/ml)
  COX activities (%): 75%
[4]; 10 ppm with LPS (1 μg/ml)
  COX activities (%): 67%
[5]; 1 ppm with PHA (100 ng/ml)
  IL-2 luciferase activities: 92
[5]; 5 ppm with PHA (100 ng/ml)
  IL-2 luciferase activities: 72
[5]; 10 ppm with PHA (100 ng/ml)
  IL-2 luciferase activities: 58
[6]; 1 ppm
  Increase of collagen synthesis (%): 23%
[6]; 5 ppm
  Increase of collagen synthesis (%): 43%
[6]; 10 ppm
  Increase of collagen synthesis (%): 76%
[7]; 1 ppm
  Inhibition of collagenase (%): 12%
[7]; 5 ppm
  Inhibition of collagenase (%): 28%
[7]; 10 ppm
  Inhibition of collagenase (%): 43%
[8]; 0.1% in liposome, day 5, untreated 24
  Body weight: 24 g
[8]; 0.1% in liposome, day 10, untreated 28
  Body weight: 24 g
[8]; 0.1% in liposome, day 15, untreated 34
  Body weight: 26 g
[8]; 1% in liposome, day 5, untreated 24
  Body weight: 23 g
[8]; 1% in liposome, day 10, untreated 28
  Body weight: 24 g
[8]; 1% in liposome, day 15, untreated 34
  Body weight: 26 g
[9]
  Cytotoxicity: did not show cytotoxicity
[10]
  inhibition at 1 ppm: 13%
  inhibition at 5 ppm: 38%
  inhibition at 10 ppm: 58%

## OC[C@H]1O[C@@H](Oc2ccc(O)cc2)[C@H](O)[C@@H](O)[C@@H]1O [Arbutin, reference compound]
[1]
  inhibition at 5 ppm: 22%
[2]; 1.0 % topical
  Whitening effects (ΔL): 0.54
[10]
  inhibition at 5 ppm: 45%
